How the values were obtained:
HY19636 cells = assay: Intracellular amino acid levels in SLC38A2-deficient HY19636 cells after alanine supplementation; format: cell-based, mouse; conditions: SLC38A2-deficient (sgSlc38a2 #1) HY19636 cells, 1 mM, 24 hours
Experimental: (A) Serine, glycine, proline, and glutamate extracellular fluxes in SLC38A2-deficient (sgSLC38A2 #1, #3) and control (sgTom) HY19636, MiaPaCa2, and PANC1 cells cultured in DMEM. Extracellular accumulation (+, secretion) or depletion (−, uptake) was measured in conditioned media over 24 hours and normalized to the viable cell density over the time course. Error bars depict s.d. of three independent experiments. (B) Essential amino acid (leucine, isoleucine, valine, threonine) uptake fluxes in SLC38A2-deficient (sgSLC38A2 #1, #3) and control (sgTom) HY19636, MiaPaCa2, and PANC1 cells cultured in DMEM for 24 hours. Error bars depict s.d. of three independent experiments. […] Data presented as a percent change for each amino acid relative to that measured in DMEM conditions. […]
For ^13C- and ^15N-labeled alanine tracing experiments, cells were plated into 6-well plates at 250,000 cells/well and allowed to attach overnight. […] Fatty acid labeling from ^13C3-alanine was measured by transferring 400 μL of the inorganic layer to a glass vial and evaporating under nitrogen flow in a needle evaporator prior to transesterification and GC-MS analysis. To quantify contribution to proteogenic amino acid pools, the insoluble interphase layer containing proteins was washed three times with HPLC-grade acetone and allowed to dry overnight with gentle nitrogen flow in a needle evaporator. […]

SLC38A2 = molecular target: T1, SLC38A2 (Homo sapiens, UniProt Q96QD8); assay: SLC38A2 activity measured by MeAIB uptake in HY15549 dox-inducible SNAT2 cells; format: cell-based; conditions: 20 μm compound, MeAIB 0.3 mM, 1 hour, vs vehicle (PBS), HY15549 cells expressing dox-inducible SLC38A2/SNAT2
T1 construct: expressed in transfected cells; host or cells: HY15549 cells with dox-inducible SNAT2
T1 sequence (Q96QD8 1-506): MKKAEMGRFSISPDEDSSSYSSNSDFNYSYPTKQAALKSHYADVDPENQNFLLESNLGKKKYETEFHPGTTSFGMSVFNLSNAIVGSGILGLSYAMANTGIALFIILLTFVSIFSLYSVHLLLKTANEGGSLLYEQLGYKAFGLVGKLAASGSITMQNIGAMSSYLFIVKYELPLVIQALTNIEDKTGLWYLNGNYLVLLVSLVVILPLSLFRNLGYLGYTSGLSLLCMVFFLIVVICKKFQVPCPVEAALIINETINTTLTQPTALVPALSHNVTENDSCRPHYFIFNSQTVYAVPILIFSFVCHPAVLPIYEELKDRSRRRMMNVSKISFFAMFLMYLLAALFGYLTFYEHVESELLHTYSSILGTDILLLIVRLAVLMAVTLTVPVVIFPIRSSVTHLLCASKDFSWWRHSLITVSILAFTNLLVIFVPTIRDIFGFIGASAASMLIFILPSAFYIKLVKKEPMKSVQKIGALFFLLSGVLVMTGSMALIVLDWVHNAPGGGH
Experimental: (A) Schematic depicting SLC38A2-dependent update of alanine structural analog, methyl α-aminoisobutyrate (MeAIB). […] (B) Total ion chromatogram (TIC) of HY15549 dox-inducible SNAT2 cells treated with 1 mM MeAIB for 24 hours compared to vehicle (PBS). […] HY15549 dox-inducible SNAT2 cells were cultured with a concentration gradient of MeAIB for 15 minutes (gray circles) or 60 minutes (black squares). (D) Western blot depicting SLC38A2 expression relative to doxycycline after 24 hours culture in HY15549 dox-inducible SNAT2 cells. (E) Intracellular MeAIB levels in HY15549 dox-inducible cells cultured with dox (+SNAT2, left bar) and without dox (KO, right bar) for 24 hours with 1 mM MeAIB. (F) Intracellular MeAIB levels in HY15549 dox-inducible cells cultured with vehicle, paroxetine (PXT, 20 μM), or sertraline (SRT, 20 μm) for 24 hours with 300 μM MeAIB.

8988T cells = assay: Alanine uptake from culture media conditioned by 8988T cells; format: cell-based; conditions: 10 μM, vs vehicle (DMSO), up to 96 hours
Experimental: (A) Alanine levels in culture media conditioned by 8988T cells treated with vehicle (DMSO) or fluvoxamine (FVX, 10 μM) over time. (B) Alanine uptake flux by 8988T cells treated with vehicle (DMSO) or fluvoxamine (FVX, 10 μM) for 96 hours. Data were normalized to cell growth over the treatment period. (C) Glutamine levels in culture media conditioned by 8988T cells treated with vehicle (DMSO) or fluvoxamine (FVX, 10 μM) over time. (D) Absolute values for amino acid uptake or secretion flux by 8988T cells treated with vehicle (DMSO) or fluvoxamine (FVX, 10 μM) for 96 hours. Data were normalized to cell growth over the treatment period.
Fluvoxamine (FVX), fluoxetine (FLX), paroxetine (PXT), sertindole (SND), and blonanserin (BNS) were acquired from Cayman Chemicals. Desipramine (DPM), α-(Methylamino) isobutyric acid (MeAIB), and L-alanine were acquired from Sigma. Stocks were prepared at 10 mM or 7.5 mM (BNS) in DMSO. Cells were treated with vehicle (DMSO) or varying concentrations of drug for indicated time. Conditioned media was collected and centrifuged at 1,000×g to remove cell debris followed by extraction of metabolites. For metabolite extraction, cells were first washed with ice cold 0.9% NaCl to remove media contamination followed by addition of 500 μL methanol (−20° C.) and 200 μL HPLC grade water (4° C.). […]

inhibition of MeAIB uptake (intracellular MeAIB levels) (SLC38A2) | SMILES | rescue of amino acid defect (change in intracellular amino acids relative to DMEM) (HY19636 cells) | alanine uptake in PDAC cells (8988T cells)
 | C[C@H](N)C(=O)OC(C)(C)C [L-alanine tert-butyl ester] | failed to rescue amino acid defect | 
 | C[C@H](N)C(=O)O [L-alanine] | failed to rescue amino acid defect | 
inhibited | COCCCC/C(=N\OCCN)c1ccc(C(F)(F)F)cc1 [fluvoxamine] |  | significantly and specifically inhibits alanine uptake

— patent publication US20220275376A1, “TARGETING SLC38A2 IN PANCREATIC CANCER” (New York University, priority 2019, published 2022)
